Data taken from patent publication US7037901B1, “Radiosensitization by indolocarbazole derivatives” (priority 2001, dated 2006).
Where two headings read alike, the source gives them in different places.

Experiments:
purified human TOP1 = biological target: T1, purified human TOP1 (Homo sapiens, UniProt P11387); assay: In vitro drug-stimulated TOP1 cleavage assay (pHOT1 plasmid nicking); format: biochemical; set-up: key to TOP1-mediated DNA cleavage: +++: high activity; ++: modest activity; +: low activity; settings: for TOP1-mediated DNA cleavage: in vitro, based on FIG. 4B and 4C; for Potency in inducing TOP1-mediated DNA cleavage (nicking of pHOT1): purified human TOP1, FIG. 4, 4C
T1 construct: purchased TopoGEN, Inc. (Columbus, Ohio)
T1 sequence (P11387 1-765): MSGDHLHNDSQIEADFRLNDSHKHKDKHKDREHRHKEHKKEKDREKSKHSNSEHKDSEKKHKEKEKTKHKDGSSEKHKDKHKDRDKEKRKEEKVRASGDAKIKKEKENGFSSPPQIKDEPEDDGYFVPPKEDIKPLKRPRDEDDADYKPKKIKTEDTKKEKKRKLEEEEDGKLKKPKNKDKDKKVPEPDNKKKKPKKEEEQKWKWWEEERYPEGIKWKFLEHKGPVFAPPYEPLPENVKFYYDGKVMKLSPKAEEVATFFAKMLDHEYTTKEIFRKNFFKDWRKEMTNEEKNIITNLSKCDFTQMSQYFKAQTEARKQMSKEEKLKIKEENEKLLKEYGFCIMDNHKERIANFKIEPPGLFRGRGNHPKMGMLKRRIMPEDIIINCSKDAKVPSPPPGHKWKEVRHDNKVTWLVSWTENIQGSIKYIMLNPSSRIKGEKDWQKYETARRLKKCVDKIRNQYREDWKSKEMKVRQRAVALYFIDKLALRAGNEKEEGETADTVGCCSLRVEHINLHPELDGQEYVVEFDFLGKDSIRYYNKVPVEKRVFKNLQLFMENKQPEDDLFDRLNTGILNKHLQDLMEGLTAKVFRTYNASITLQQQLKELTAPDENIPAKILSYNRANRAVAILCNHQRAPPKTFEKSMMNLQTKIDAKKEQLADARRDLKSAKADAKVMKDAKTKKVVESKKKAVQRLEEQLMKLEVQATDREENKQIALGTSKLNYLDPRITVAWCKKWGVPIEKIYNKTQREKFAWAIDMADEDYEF
Method: In vitro drug-stimulated TOP1 cleavage assay. Drug-stimulated DNA cleavage assay using purified human TOP1 was performed according to the protocol provided by TopoGEN Inc. (Columbus, Ohio) with modifications.
Briefly, supercoiled pHOT1 plasmid DNA (0.2 μg) was incubated with 1 unit of human TOP1 in cleavage buffer (50 mM Tris, pH 7.8, 50 mM KCl, 10 mM MgCl2, 1 mM dithiothreitol, 1 mM EDTA) in the presence of varying concentrations of the drug under study. Following a 30-min incubation at 37° C., the reactions were terminated by adding SDS to 1.0% and proteinase K to 200 μg/ml. The proteinase K treatment continued at 37° C. for 1 h. The sample was then mixed with loading dye (containing sucrose and bromphenol blue) and separated in 1% agarose gel in 0.08 M Tris-phosphate, 0.008 M EDTA, pH 8.0 buffer at room temperature for 16 h.
The gel was initially stained with ethidium bromide ([…]), washed and photographed under UV light. In order to separate the “nicked” from the “relaxed” DNA population, the gel was further run for 4 h in the presence of ethidium bromide before being photographed again under UV light. The photograph was scanned and the intensity of the nicked DNA of each lane was measured using the ImageJ program obtained from the National Institutes of Health (web site: rsb.info.nih.gov/ij/). The intensity of the nicked band of each lane was plotted after the background intensity (pHOT1+TOP1 lane) was subtracted.

[1] = system: human MCF-7, Chinese hamster CHO and DC3F cells; assay: Cytotoxicity (LD50) by clonogenic survival assays in three cell lines; format: cell-based; settings: 1 h drug treatment; MCF-7, CHO and DC3F cells
Method: (§1) Clonogenic Survival Assay. […] 18–24 h prior to experimental studies.
(§2) Colonies consisting of >50 cells were counted.
We investigated the relationship between the TOP1-mediated DNA damage and the cytotoxic and radiosensitizing effects induced by the six INDO derivatives. The cytotoxicity of various INDO derivatives was determined by exposing logarithmically growing human MCF-7, Chinese hamster CHO and DC3F cells to the individual drug for 1 hr, followed by clonogenic survival assays.

[2] = system: Chinese Hamster lung fibroblast DC3F cells; assay: Clonogenic survival assay, cytotoxicity in DC3F cells
Method: (§3) Clonogenic Survival Assay. For a typical clonogenic survival experiment, stock cultures of exponentially growing cells were trypsinized, rinsed, and plated (5×10^5 cells per dish for DC3F and DC3F/C-10 cells; 1×10^6 cells for MCF-7 cells) into 100-mm petri dishes and incubated at 37° C. 18–24 h prior to experimental studies.
(§4) Following various experimental protocols with drug incubation and irradiation, cells were trypsinized, rinsed, counted, and plated for […] colony formation. Depending on the anticipated survival level, 10^2 to 10^5 cells were plated per dose point. When higher cell numbers were plated, large petri dishes were used to avoid possible cell-density effect (100-mm instead of 60-mm petri dishes for cell number≧5×10^4). Depending on the treatment protocols, an equivalent amount of DMSO was added into each of the control radiation alone dishes (final DMSO concentration <0.1%).
(§5) Following seven to fourteen days of incubation, colonies were fixed with methanol/acetic acid (3:1), stained with crystal violet. Colonies consisting of >50 cells were counted. All survival points were done in triplicate, and experiments were conducted a minimum of two times. Error bars shown in the figures represent standard deviations (SD) and are shown when larger than the symbol.
(§6) The DC3F/C-10 cell line was selected from the Chinese Hamster lung fibroblast DC3F cell line in the presence of 1 μM of camptothecin (Albright, N., Radiat. Res., 112:331–340 (1987), and Chen, Y. N., J. Biol. Chem., 265:10073–10080 (1990)). […] In an attempt to determine the importance of TOP1 in mediating the cytotoxic and radiosensitizing effects by INDO derivatives, clonogenic survival assays were performed in DC3F and DC3F/C10 cells.

[3] = system: camptothecin-resistant, TOP1 mutant DC3F/C-10 cells; settings: for Cytotoxic effect: DC3F/C10 cells
Method: as §3, §4, §5, §6

DC3F cells = assay: Radiosensitization in DC3F cells (clonogenic survival with radiation); format: cell-based, Chinese hamster; settings: for Induction of RS: concentrations as high as 10 μg/ml (data not shown)
Method: as §1, §2
(§7) Irradiation of Cells. Drug-treated and control cells in medium were irradiated using a cobalt-60 source (Eldorado 8; Theratronics, Canada) at a dose rate of 105 cGy/min.
(§8) Analysis of Survival Curves. Survival curves were corrected for cytotoxicity induced by drug alone treatment. Sensitization enhancement ratios (SERs) and standard deviations for survival curves were determined at 10% cell survival. Each SER was calculated by dividing the radiation dose to induce 10% cell survival in the absence of radiosensitizer with the radiation dose to induce 10% cell survival in the presence of radiosensitizer.

[4] = system: TOP1 mutant DC3F/C10 cells; assay: Radiosensitization in DC3F/C10 cells (clonogenic survival with radiation); format: cell-based, Chinese hamster; settings: for Radiation Dose (Gy) at 10% Survival / SER / Induction of RS: DC3F/C10 cells; for Resistance of DC3F/C-10 cells to induction of RS: in comparison to the DC3F cells, Table 4; for Induction of RS: concentrations as high as 10 μg/ml (data not shown)
Method: as §1, §2, §7, §8

[5] = biological target: camptothecin-resistant TOP1 mutant F361S (Homo sapiens, UniProt P11387, F361S); settings: published work; cited from earlier work
camptothecin-resistant TOP1 mutant F361S, sequence (P11387 whole entry F361S): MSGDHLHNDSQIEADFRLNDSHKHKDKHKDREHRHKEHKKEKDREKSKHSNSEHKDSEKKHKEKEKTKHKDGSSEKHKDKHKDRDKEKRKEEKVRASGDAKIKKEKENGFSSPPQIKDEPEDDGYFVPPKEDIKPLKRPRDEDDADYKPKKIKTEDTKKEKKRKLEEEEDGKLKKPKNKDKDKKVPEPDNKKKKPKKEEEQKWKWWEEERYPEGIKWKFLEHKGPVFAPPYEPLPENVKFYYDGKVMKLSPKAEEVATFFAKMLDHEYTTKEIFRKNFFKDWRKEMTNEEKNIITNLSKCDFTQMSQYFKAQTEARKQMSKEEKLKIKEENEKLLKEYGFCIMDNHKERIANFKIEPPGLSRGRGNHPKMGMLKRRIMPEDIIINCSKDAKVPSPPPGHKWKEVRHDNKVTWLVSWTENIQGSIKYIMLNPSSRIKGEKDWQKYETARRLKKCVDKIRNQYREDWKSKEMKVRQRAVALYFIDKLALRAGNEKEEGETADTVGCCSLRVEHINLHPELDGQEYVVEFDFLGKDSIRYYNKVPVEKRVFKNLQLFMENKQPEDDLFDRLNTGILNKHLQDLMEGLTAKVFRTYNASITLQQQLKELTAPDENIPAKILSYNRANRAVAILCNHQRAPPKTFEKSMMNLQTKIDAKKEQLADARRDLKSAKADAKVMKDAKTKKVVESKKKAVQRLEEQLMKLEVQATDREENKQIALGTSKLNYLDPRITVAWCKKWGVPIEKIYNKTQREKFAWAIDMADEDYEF

| Structure (SMILES) | TOP1-mediated DNA cleavage (purified human TOP1) | Potency in inducing TOP1-mediated DNA cleavage (nicking of pHOT1) (purified human TOP1) | Cytotoxicity (based on LD50) [1] | Cytotoxic effect [3] | Radiation Dose (Gy) at 10% Survival (DC3F cells; 5.0 μg/ml) [Gy] | SER (DC3F cells; 5.0 μg/ml) | Radiation Dose (Gy) at 10% Survival ([4]; 5.0 μg/ml) [Gy] | SER ([4]; 5.0 μg/ml) | Resistance of DC3F/C-10 cells to induction of RS [4] | Cytotoxic effect ([2]; DC3F cells) | RR (relative resistance) [3] | Relative resistance of DC3F/C10 cells to the cytotoxic effect [3] | Induction of RS (DC3F cells) | Induction of RS [4] | other results |
| --- | --- | --- | --- | --- | --- | --- | --- | --- | --- | --- | --- | --- | --- | --- | --- |
| CO[C@H]1[C@H](O)[C@@H](O)[C@H](n2c3c(Cl)cccc3c3c4c(c5c6cccc(Cl)c6[nH]c5c32)C(=O)NC4=O)O[C@@H]1CO [F1, rebeccamycin] | + | less potent group | ++ (modest activity, LD50 >4 μg/ml but ≦10 μg/ml) | lack of cytotoxic effect | 4.6 | 1.3 | 4.8 | 1.1 | showed resistance to induction of RS |  |  |  |  |  | Cytotoxic effect [2]: lack of cytotoxic effect; Radiation Dose (Gy) at 10% Survival (DC3F cells; 1.0 μg/ml): 4.9 Gy; SER (DC3F cells; 1.0 μg/ml): 1.2; Radiation Dose (Gy) at 10% Survival ([4]; 25 μg/ml): 4.5 Gy; SER ([4]; 25 μg/ml): 1.2 |
| COC1C(CO)OC(n2c3ccccc3c3c4c(c5c6ccccc6[nH]c5c32)C(=O)OC4=O)C(O)C1O (stereo not drawn) [F5] | + | less potent group | + (low activity, LD50 >10 μg/ml) | lack of cytotoxic effect |  |  |  |  |  | lack of cytotoxic effect |  |  |  |  |  |
| COC1C(CO)OC(n2c3ccccc3c3c4c(c5c6ccccc6[nH]c5c32)C(=O)N(O)C4=O)C(O)C1O (stereo not drawn) [F7] | +++ | equivalent activity as camptothecin | ++ (modest activity, LD50 >4 μg/ml but ≦10 μg/ml) |  | 3.9 | 1.5 | 5.2 | 1.0 | showed resistance to induction of RS |  | >5.0 | more than 5 fold |  |  | Radiation Dose (Gy) at 10% Survival (DC3F cells; 2.5 μg/ml): 4.6 Gy; SER (DC3F cells; 2.5 μg/ml): 1.3; Radiation Dose (Gy) at 10% Survival (DC3F cells; 10 μg/ml): 3.6 Gy; SER (DC3F cells; 10 μg/ml): 1.7; Radiation Dose (Gy) at 10% Survival ([4]; 10 μg/ml): 4.9 Gy; SER ([4]; 10 μg/ml): 1.1; Radiation Dose (Gy) at 10% Survival ([4]; 20 μg/ml): 4.1 Gy; SER ([4]; 20 μg/ml): 1.3; Cross-resistance of mutant TOP1 [5]: cross-resistant |
| COC1C(CO)OC(n2c3c(Cl)cccc3c3c4c(c5c6cccc(Cl)c6[nH]c5c32)C(=O)N(C)C4=O)C(O)C1O (stereo not drawn) [F43] | + | less potent group | + (low activity, LD50 >10 μg/ml) | lack of cytotoxic effect |  |  |  |  |  | lack of cytotoxic effect |  |  |  |  |  |
| COC1C(CO)OC(n2c3ccccc3c3c4c(c5c6ccccc6[nH]c5c32)C(=O)N(C)C4=O)C(O)C1O (stereo not drawn) [F44] | ++ | less potent group | +++ (high activity, LD50 ≦4 μg/ml) |  |  |  |  |  |  |  | 2.5 | 2.5 fold | incapable of inducing RS | incapable of inducing RS |  |
| COC1C(CO)OC(n2c3ccccc3c3c4c(c5c6ccccc6[nH]c5c32)C(=O)NC4=O)C(O)C1O (stereo not drawn) [F71] | +++ | equivalent activity as camptothecin | +++ (high activity, LD50 ≦4 μg/ml) |  |  |  |  |  |  |  | 2.7 | 2.7 fold | incapable of inducing RS | incapable of inducing RS |  |
